Assay results taken from ChEMBL document CHEMBL3217633, “Simplified platensimycin analogues as antibacterial agents” (2012).
In brackets after ≈: the same amount, converted by molar mass. Activity calls are given as the source filed them. No cut-off for these calls is given here.

Key:
Staphylococcus aureus [1] = assay: Antimicrobial activity against methicillin-resistant Staphylococcus aureus ATCC 43300 at 10 ug/disc after 24 hrs by disc diffusion assay; assay type: functional; settings: ATCC 43300, 24 h, read-out: DIZ
Staphylococcus aureus [2] = assay: Antimicrobial activity against methicillin-resistant Staphylococcus aureus ATCC 43300 at 1 mg/disc after 24 hrs by disc diffusion assay; assay type: functional
Staphylococcus aureus [3] = assay: Antimicrobial activity against vancomycin-intermediate Staphylococcus aureus ATCC 700699 after 24 hrs by broth microdilution method; assay type: functional; settings: ATCC 700699, 24 h
Staphylococcus aureus [4] = assay: Antimicrobial activity against methicillin-resistant Staphylococcus aureus ATCC 43300 after 24 hrs by broth microdilution method; assay type: functional; settings: ATCC 43300, 24 h
Pseudomonas aeruginosa = assay: Antimicrobial activity against Pseudomonas aeruginosa ATCC 27853; assay type: functional, organism-based
Staphylococcus aureus [5] = assay: Antimicrobial activity against heterogeneous vancomycin-intermediate Staphylococcus aureus ATCC 700698 after 24 hrs by broth microdilution method; assay type: functional; settings: ATCC 700698, 24 h
Klebsiella pneumoniae = assay: Antimicrobial activity against Klebsiella pneumoniae ATCC 13883; assay type: functional, organism-based
Acinetobacter baumannii = assay: Antimicrobial activity against Acinetobacter baumannii ATCC 19606; assay type: functional

Compound	zone of inhibition at 10 µg/disc (Staphylococcus aureus [1])	diameter of the inhibition zone (DIZ) (Staphylococcus aureus [2])	other results
CCC1(C(=O)Nc2c(O)ccc(C(=O)O)c2O)CCCCC1	0 mm	10 mm	
CC(C)(C)C(=O)Nc1c(O)ccc(C(=O)O)c1O	0 mm		
CC12CC[C@@](C(=O)Nc3cccc(C(=O)O)c3O)(OC1=O)C2(C)C	0 mm	21 mm	
CC12CC[C@](C(=O)Nc3cccc(C(=O)O)c3O)(OC1=O)C2(C)C	0 mm	14 mm	
CC(=O)NC[C@H]1CN(c2ccc(N3CCOCC3)c(F)c2)C(=O)O1 [LINEZOLID]	26 mm		
O=C(O)c1cccc(NC(=O)C2CCCCC2)c1O	0 mm		
CCC(=O)Nc1c(O)ccc(C(=O)O)c1O	0 mm		
CCCC(=O)Nc1c(O)ccc(C(=O)O)c1O	0 mm	20 mm	
CCC1(C(=O)Nc2cccc(C(=O)O)c2O)CCCCC1	0 mm	10 mm	
O=C(O)c1cccc(NC(=O)C23CC4CC(CC(C4)C2)C3)c1O	0 mm	11 mm	
CC(C)C(=O)Nc1c(O)ccc(C(=O)O)c1O	0 mm		
CC12CC[C@](C(=O)Nc3c(O)ccc(C(=O)O)c3O)(OC1=O)C2(C)C	18 mm	38 mm	
CC12C[C@@]34C=CC(=O)[C@@](C)(CCC(=O)Nc5c(O)ccc(C(=O)O)c5O)C3[C@H](CC1C4)O2 (stereo partly drawn) [PLATENSIMYCIN]	30 mm		MIC (Staphylococcus aureus [3]): 2 µg/mL (≈ 4.53 µM); MIC (Staphylococcus aureus [4]): 2 µg/mL (≈ 4.53 µM); Activity (Pseudomonas aeruginosa): inactive; MIC (Staphylococcus aureus [5]): 2 µg/mL (≈ 4.53 µM); Activity (Klebsiella pneumoniae): inactive; Activity (Acinetobacter baumannii): inactive
CCC(=O)Nc1cccc(C(=O)O)c1O	0 mm		
CC(C)(C)C(=O)Nc1cccc(C(=O)O)c1O	0 mm		
O=C(O)c1ccc(O)c(NC(=O)C23CC4CC(CC(C4)C2)C3)c1O	0 mm	11 mm	
CC12CC[C@@](C(=O)Nc3c(O)ccc(C(=O)O)c3O)(OC1=O)C2(C)C	0 mm	22 mm	
O=C(O)c1ccc(O)c(NC(=O)C2CCCCC2)c1O	0 mm		
O=C(O)c1cccc(NC(=O)C2CCCC2)c1O	0 mm		
CCCC(=O)Nc1cccc(C(=O)O)c1O	0 mm		
O=C(O)c1ccc(O)c(NC(=O)C2CCCC2)c1O	0 mm	8 mm	
CC(C)C(=O)Nc1cccc(C(=O)O)c1O	0 mm		
